Read-outs that look alike come from different tables or passages of the source.
Legend:
[1] = biological target: T1, perforin produced by an intact NK cell line (KHYG-1) (Homo sapiens, UniProt P14222); assay: KHYG-1 cytotoxicity assay: perforin-induced lysis of K562 target cells co-incubated with KHYG-1 NK cells; assay type: cell-based; details: for inhibition at 5 µM: KHYG-1
T1 construct: the perforin is delivered by a functional NK cell; endogenous in cells; host or cells: KHYG-1 NK cells (K562 target cells)
T1 sequence (P14222 22-555): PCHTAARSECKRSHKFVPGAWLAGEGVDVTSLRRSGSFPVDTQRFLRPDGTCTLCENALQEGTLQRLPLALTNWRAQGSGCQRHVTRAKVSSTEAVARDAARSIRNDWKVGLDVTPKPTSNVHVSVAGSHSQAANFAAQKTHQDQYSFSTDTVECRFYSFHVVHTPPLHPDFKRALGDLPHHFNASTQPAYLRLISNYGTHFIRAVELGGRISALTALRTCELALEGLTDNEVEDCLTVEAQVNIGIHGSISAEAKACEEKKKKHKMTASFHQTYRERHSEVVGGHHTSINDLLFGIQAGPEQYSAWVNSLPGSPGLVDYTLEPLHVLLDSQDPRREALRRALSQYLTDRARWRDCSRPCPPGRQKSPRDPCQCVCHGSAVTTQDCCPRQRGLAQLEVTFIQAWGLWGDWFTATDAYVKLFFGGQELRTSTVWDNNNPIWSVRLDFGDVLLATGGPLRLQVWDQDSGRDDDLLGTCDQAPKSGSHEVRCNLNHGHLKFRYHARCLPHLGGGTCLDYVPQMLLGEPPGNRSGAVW
Description: KHYG-1 cells were washed and resuspended in RPMI + 0.1% BSA at 4 × 10^5 cells/mL, and an amount of 50 μL of KHYG-1 cells was dispensed to each well of a 96-well V-bottom plate. RPMI (50 μL) + 0.1% BSA or 10% (final concentration) of serum was added to each well. Then test compounds were added to KHYG-1 cells at various concentrations up to 20 μM and incubated at room temperature for 20 min. 1 × 10^6 K562 target cells were labeled with 75 μCi ^51Cr in 200 μL of RPMI for 90 min at 37 °C. Cells were washed as described above and resuspended in 5 mL of RPMI + 0.1% BSA. […] The percentage of specific cytotoxicity was calculated using the following formula: [drawing 4] and expressed as the mean of triplicate assays ± standard error of the mean.

[2] = Solubility in SPR running buffer; assay type: physicochemical; details: HEPES buffered saline running buffer with 5% DMSO; sodium salts, HEPES running buffer containing 5% DMSO
Description: Binding experiments with surface immobilized wild-type perforin monomers on a S-series CM5 sensor chip (GE Healthcare Life Sciences) were carried out using a Biacore T200 SPR machine (GE Healthcare Life Sciences). […] The initial and running buffers were made from a 10× stock solution of HEPES buffered saline (HBS). 10× HBS (50 mL) was diluted to 500 mL with water and filtered through a 0.22 μm filter (initial buffer). This initial buffer (380 mL) was added to DMSO (20 mL) to prepare the 5% DMSO running buffer. Stock solutions (2.5 mM) of compound were prepared in 100% DMSO. […] A solvent correction was run before and after the injections to account for differences in DMSO concentrations between buffer and analyte solutions.

[3] = Maximum tolerated dose (MTD) in C57BL/6 mice; details: C57BL/6, mouse, in vivo, ip
Description: The MTD was determined by single dose or b.i.d. × 3 intraperitoneal administration through a classical dose escalation design in C57BL/6 mice and defined as a dose level that was tolerated by mice (n = 2–3 mice/group) with a body weight loss of <10% and no death or detectable sickness. […] All animal experiments were approved by the Animal Ethics Committee of the University of Auckland.

[4] = Plasma pharmacokinetics in male CD-1 mice; assay type: in vivo, mouse; details: 5 mg/kg iv; for AUC0–∞ / Cmax / T1/2: plasma
Description: Blood was collected by cardiac puncture at 5 and 30 min and 1, 2, 4, and 6 h postdose in ice-cold K2-EDTA tubes. Plasma samples were separated by centrifuging at 4000g for 8 min and stored at −80 °C until analysis. Frozen plasma was thawed on wet ice on the day of analysis. […] A Zorbax SB-C18, 50 mm × 2.1 mm 5 μm column was used at a 0.5 mL/min flow rate, and elution was with a gradient of organic phase (A), acetonitrile in water (80:20 v/v) containing 0.01% formic acid and aqueous phase (B), water containing 0.01% formic acid. LC–MS/MS analysis was carried out using multiple reaction monitoring. […] Plasma samples from 5 min, 30 min, and 1 h were diluted with control mouse plasma (1:20 for 5 min, 1:10 for 30 min and 1 h samples) to fit within this range. The resultant concentration vs time data were fitted (using Phoenix WinNonlin 6.2; Pharsight Corporation, St. Louis, MO) to calculate pharmacokinetic parameters including half-life (T1/2), maximum concentration (Cmax), area under the curve (AUC0–∞), volume of distribution (V), and clearance (Cl).

[5] = Toxicity to KHYG-1 NK cells (Trypan blue exclusion); assay type: cell-based, human; details: human, viability after 24 h; for viability at 4 h, 20 µM: 4 h exposure, Trypan blue, ± SEM
Description: The toxicity assay was carried out in exactly the same manner as the killing assay above, but instead of adding the labeled K562 target cells, 100 μL of RPMI 0.1% BSA was added. Cells were incubated for 4 h at 37 °C and then washed ×3 in RPMI + 0.1% BSA. […] Trypan blue was added to each well. Viable (clear) cells and total (clear + blue) cells were counted, and the percentage of viable cells was calculated compared to DMSO treated cell control (% viability).

[6] = intraperitoneal, twice daily over 3 days, read-out: MTD, multiple dosing
[7] = single intraperitoneal dose, mice, read-out: MTD, single dose

Row | Compound | inhibition at 20 µM ([1]; 20 μM, 10% mouse serum, K562 targets, ± SEM, read-out: KHYG-1 inhibition (% at 20 μM), 10% serum) | inhibition at 20 µM ([1]; 20 μM, no serum, K562 targets, vs untreated control, ± SEM, read-out: KHYG-1 inhibition (% at 20 μM), no serum) | solubility [2] | MTD at 96 h [3, 6] | MTD at 96 h [3, 7] | Cl (clearance) [4] | V (volume of distribution) [4] | AUC0–∞ [4] | Cmax [4] | T1/2 [4] | viability at 4 h, 20 µM ([5]; KHYG-1 NK cells) | inhibition at 5 µM ([1]; 10% mouse serum, read-out: KHYG-1 inhibition, 10% serum) | inhibition at 5 µM ([1]; no serum, read-out: KHYG-1 inhibition, no serum) | inhibition at 20 µM ([1]; read-out: KHYG-1 inhibition (% at 20 μM), 10% serum) | inhibition at 20 µM ([1]; read-out: KHYG-1 inhibition (% at 20 μM), no serum) | viability at 4 h, 5 µM ([5]; KHYG-1 NK cells, 5 μM) | viability at 4 h, 20 µM [5]
1 | CC1c2cc(-c3ccc(/C=C4/NC(=S)NC4=O)s3)ccc2C(=O)N1C (stereo not shown) [compound 135, (E,Z)-2,3-Dimethyl-5-(5-((5-oxo-2-thioxoimidazolidin-4-ylidene)methyl)thiophen-2-yl)isoindolin-1-one] | 67 ± 6.1% | 90 ± 4% | ≤ 2.5 µM | 60 mg/kg | 80 mg/kg | 4346 mL h^–1 kg^–1 | 1.478 L/kg | 1151 ng·h/mL | 4488 ng/mL | 1.15 h | 74 ± 8.3% | – | – | – | – | – | –
2 | O=C1NC(=S)N/C1=C/c1ccc(-c2ccc3c(c2)CCNC3=O)s1 [compound 167] | – | – | ≤ 2.5 µM | 40 mg/kg | 60 mg/kg | 5237 mL h^–1 kg^–1 | 2.75 L/kg | 955 ng·h/mL | 4513 ng/mL | 1.30 h | – | 34 ± 6.4% | 51 ± 4.2% | 81 ± 5.3% | 83 ± 4.6% | 82 ± 3.6% | 38 ± 7.8%
